Measurements taken from patent US20220304950A1, “[…] THE TREATMENT OF PATIENTS WITH MAJOR DEPRESSIVE DISORDER, INCLUDING SUICIDALITY” (JANSSEN PHARMACEUTICALS, INC., priority 2019, published 2022).

How the values were obtained:
Assay type in all cases: in vivo, human
[1] = system: adult patients with MDD assessed to be at imminent risk for suicide; assay: MADRS total score, Study 2 (Example 5); conditions: 24 hours post first dose
Description: The primary efficacy evaluation will be the MADRS total score. The MADRS will be performed using the Structured Interview Guide for the Montgomery Asberg Depression Rating Scale. The MADRS is a clinician-rated scale designed to be used in subjects with MDD to measure depression severity and detect changes due to antidepressant treatment. The test consists of 10 items, each of which is scored from 0 (item not present or normal) to 6 (severe or continuous presence of the symptoms), for a total possible score of 60. Higher scores represent a more severe condition. The MADRS evaluates apparent sadness, reported sadness, inner tension, sleep, appetite, concentration, lassitude, interest level, pessimistic thoughts, and suicidal thoughts.
The typical recall period for the MADRS is 7 days. In this study, the MADRS will also be administered using a since last assessment recall, a 4-hour recall on Day 1 and Day 25 postdose, and a 24-hour recall on Day 2. For the MADRS performed at 4 hours postdose on Days 1 and 25, the MADRS scores for the sleep item recorded predose on the same day will be carried forward.
The primary objective is to compare the efficacy of ESK+SOC to that of PBO+SOC in reducing the symptoms of MDD, including suicidal ideation, as measured by the change from baseline on the MADRS total score at 24 hours post-first dose. […]
Primary efficacy variable/Primary timepoint: Change in MADRS total score from baseline to 24 hours post first dose (Day 2). The MADRS consists of 10 items that cover all of the core depressive symptoms: each item is scored from 0 (symptom is not present or is normal) to 6 (severe or continuous presence of the symptom). A total score (0 to 60) is calculated by summing the scores of all 10 items. […]

[2] = system: adult patients with MDD assessed to be at imminent risk for suicide; assay: Treatment disposition, Study 1 (Example 4); conditions: Esk 84 mg + SOC, double-blind phase, all randomized
Experimental: A total of 270 subjects were screened across 51 sites in 10 countries throughout the study period. Of those, 226 subjects were randomized to 1 of 2 treatment groups in a 1:1 ratio (114 in esketamine 84 mg+SOC and 112 in placebo+SOC). The randomization was stratified by study center and by the physician's assessment of the participant's need of standard of care antidepressant treatment prior to randomization on Day 1 (i.e., antidepressant monotherapy or antidepressant plus augmentation therapy).

[3] = system: adult patients with MDD assessed to be at imminent risk for suicide; assay: CGI-SS-R subgroup analysis by prior suicide attempt, Examples 4 and 5; conditions: 24 hours after the first dose
Description: FIG. 17 is a forest plot for the prior suicide attempt sub-group analysis using CGI-SS-R for Examples 4 and 5.
In certain aspects, the disclosure relates to methods for reducing symptoms of major depressive disorder, including suicidality, in a human patient assessed to be at imminent risk for suicide comprising the administration of esketamine in addition to standard of care treatment. As reflected in the reported data, for depressive symptoms, the treatment differences favored the administration of esketamine plus standard of care treatment over standard of care treatment alone. In addition, treatment differences between patients that previously attempted suicide (attempters) and those that had not (non-attempters) were also present (see, e.g., data reflected in FIGS. 9-17). […] Improvement in this population is of clinical relevance considering that prior suicide attempt has been identified as the single most important predictor/risk factor for suicide in subjects with MDD.

[4] = system: adult patients with MDD assessed to be at imminent risk for suicide; assay: CGI-SS-R (SIBAT), Study 2 (Example 5); conditions: 24 hours post first dose
Description: (§1) The SIBAT is a suicide assessment tool that captures suicidal ideation and behavior(s) as reported by patients and reviewed by clinicians permitting efficient collection and documentation of clinical impression of severity of suicidality and imminent and long-term suicide risk and treatment plans.
(§2) The CGI-SS-R rating is scored on a 7-point scale from 0 (normal, not at all suicidal) to 6 (among the most extremely suicidal patients) and will be based on the totality of information available to the clinician, including information from the SIBAT. The CGI-SS-R summarizes the clinician's overall impression of severity of suicidality and will be used to assess the key secondary endpoint in this study. This rating operates like numerous other CGI-severity scales that have been used in other psychiatric studies. These instruments have shown clinical validity and sensitivity to change.
Key secondary efficacy variable: Change in CGI-SS-R from baseline to 24 hours post first dose (Day 2). The CGI-SS-R, derived from the Suicidal Ideation and Behavior Assessment Tool (SIBAT) rating is scored on a 7-point scale from 0 (normal, not at all suicidal) to 6 (among the most extremely suicidal patients).

[5] = system: adult patients with MDD assessed to be at imminent risk for suicide; assay: CGI-SS-R (SIBAT), Study 1 (Example 4); conditions: 24 hours post first dose; for CGI-SS-R change, Hodges-Lehmann Est. of Treatment Diff. (95% CI): Esk 84 mg + SOC vs placebo + SOC
Description: as §1, §2
Change in CGI-SS-R from baseline to 24 hours post first dose (Day 2). The CGI-SS-R, derived from the Suicidal Ideation and Behavior Assessment Tool (SIBAT) rating is scored on a 7-point scale from 0 (normal, not at all suicidal) to 6 (among the most extremely suicidal patients).

## CN[C@]1(c2ccccc2Cl)CCCCC1=O [esketamine, (S)-2-(2-chlorophenyl)-2-(methylamino)cyclohexanone]
[1]
  Effect size for the primary endpoint (MADRS): 0.35
[1]; ANCOVA LOCF
  MADRS total score change, least-square mean difference (SE) vs placebo+SOC: −3.9 (1.39)
[1]; esketamine 84 mg+SOC
  MADRS total score, change from baseline to Day 2 (LOCF), mean (SD): −15.7 (11.56)
[2]
  Discontinuation due to adverse event, subjects %: 4.4%
  Discontinuation due to adverse event, subjects n: 5
[3]; subjects with history of prior suicide attempt (FIG. 17)
  Odds ratio (95% CrI) for an improved CGI-SS-R score relative to placebo+SOC: 2.09 (1.06; 4.23)
[3]; subpopulation without prior suicide attempt (FIG. 17)
  Odds ratio (95% CrI) for an improved CGI-SS-R score relative to placebo+SOC: 1.14 (0.46; 2.83)
[4]
  CGI-SS-R change, Hodges-Lehmann estimate (95% CI) of the difference vs placebo+SOC: 0.0 (0.00; 0.00)
[4]; esketamine 84 mg+SOC
  CGI-SS-R, change from baseline to Day 2 (LOCF), median (range): −1.0 (−6; 2)
[5]
  CGI-SS-R change, Hodges-Lehmann Est. of Treatment Diff. (95% CI): 0.0 (−1.00; 0.00)
[5]; listed as Esk
  CGI-SS-R change, Hodges-Lehmann Est. of Treatment Diff. (95% CI): 0.0
[5]; Esk 84 mg + SOC
  CGI-SS-R score, Day 2 (DB) LOCF, median: 2.0
  CGI-SS-R score, change from baseline to Day 2 (LOCF), median (range): −1.0 (−6; 2)
[5]; Esk 84 mg + SOC, listed as Esk
  CGI-SS-R score, change from baseline to Day 2 (LOCF), median (range): −1.0
